Data on 27 compounds can be found in patent US11046649B2, “Compounds useful as inhibitors of indoleamine 2,3-dioxygenase and/or tryptophan dioxygenase” (Board of Regents, The University of Texas System, priority 2018, dated 2021).

Molecules are shown by their SMILES.

The test deals with T1, IDO1 (Homo sapiens, UniProt P14902).
T1 construct: endogenous in cells; host or cells: HeLa cells (ATCC), IDO1 induced with 10 ng/mL IFNgamma
Put plainly: IDO1 cell-based assay. The note with it: HeLa cells, 10 ng/mL IFNgamma, 24 hours with test compound; N-Formyl Kynurenine and L-tryptophan quantified by RFMS.

As usually defined, the IC50 is the concentration that gives 50% inhibition.

T1 sequence (P14902 whole entry): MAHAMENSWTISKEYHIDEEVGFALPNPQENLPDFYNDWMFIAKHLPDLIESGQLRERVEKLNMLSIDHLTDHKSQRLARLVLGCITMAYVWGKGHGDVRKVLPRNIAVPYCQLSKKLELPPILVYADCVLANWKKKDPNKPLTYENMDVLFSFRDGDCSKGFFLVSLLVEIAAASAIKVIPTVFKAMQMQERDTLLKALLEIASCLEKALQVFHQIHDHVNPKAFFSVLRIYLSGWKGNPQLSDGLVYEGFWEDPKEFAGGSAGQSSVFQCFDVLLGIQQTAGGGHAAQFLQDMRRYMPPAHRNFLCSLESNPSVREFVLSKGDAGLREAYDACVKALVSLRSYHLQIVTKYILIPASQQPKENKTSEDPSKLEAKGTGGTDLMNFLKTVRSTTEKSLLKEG

`CC(C(=O)Nc1ccc(Cl)cn1)[C@H]1[C@@H]2C[C@@H](n3cnc4cc(F)c(F)cc43)C[C@@H]21` (stereo partly drawn) [Example 22, N-(5-chloropyridin-2-yl)-2-((1R,3s,5S,6r)-3-(5,6-difluoro-1H-benzo[d]-imidazol-1-yl)bicyclo-[3.1.0]hexan-6-yl)-propanamide] displayed a 50% inhibitory concentration (IC50) of 0.0025 µM.

Regarding `CC(C(=O)NC12CC(C#N)(C1)C2)[C@H]1[C@@H]2C[C@@H](n3cnc4cc(F)c(F)cc43)C[C@@H]21` (stereo partly drawn) [Example 23, N-(3-cyanobicyclo-[1.1.1]pentan-1-yl)-2-((1R,3s,5S,6r)-3-(5,6-difluoro-1H-benzo[d]-imidazol-1-yl)bicyclo-[3.1.0]hexan-6-yl)-propanamide], 1.65 µM corresponded to half-maximal inhibition (IC50).

`CC(C(=O)NC12CC(C(F)(F)F)(C1)C2)[C@H]1[C@@H]2C[C@@H](n3cnc4cc(F)c(F)cc43)C[C@@H]21` (stereo partly drawn) [Example 24, 2-((1R,3s,5S,6r)-3-(5,6-difluoro-1H-benzo[d]-imidazol-1-yl)bicyclo-[3.1.0]hexan-6-yl)-N-(3-(trifluoromethyl)bicyclo [1.1.1]pentan-1-yl)-propanamide] gave an IC50 of 0.117 µM.

With `CC(C(=O)NC1CC(F)C1)[C@H]1[C@@H]2C[C@@H](n3cnc4cc(F)c(F)cc43)C[C@@H]21` (stereo partly drawn) [Example 25, 2-((1R,3s,5S,6r)-3-(5,6-difluoro-1H-benzo[d]-imidazol-1-yl)bicyclo-[3.1.0]hexan-6-yl)-N-(3-fluorocyclobutyl)-propanamide], the IC50 was found to be 3.42 µM.

For the compound `COc1ccc(NC(=O)C(C)[C@H]2[C@@H]3C[C@@H](n4cnc5cc(F)c(F)cc54)C[C@@H]32)nc1` (stereo partly drawn) [Example 27, 2-((1R,3s,5S,6r)-3-(5,6-difluoro-1H-benzo[d]-imidazol-1-yl)bicyclo-[3.1.0]hexan-6-yl)-N-(5-methoxypyridin-2-yl)-propanamide], the IC50 turned out to be 0.00663 µM.

`CC(C(=O)NC12CC(F)(C1)C2)[C@H]1[C@@H]2C[C@@H](n3cnc4cc(F)c(F)cc43)C[C@@H]21` (stereo partly drawn) [Example 28, 2-((1R,3s,5S,6r)-3-(5,6-difluoro-1H-benzo[d]-imidazol-1-yl)bicyclo-[3.1.0]hexan-6-yl)-N-(3-fluorobicyclo[1.1.1]pentan-1-yl)propanamide] gave an IC50 of 2.52 µM.

Turning to `Cc1ccc(NC(=O)C(C)[C@H]2[C@@H]3C[C@@H](n4cnc5cc(F)c(F)cc54)C[C@@H]32)nc1` (stereo partly drawn) [Example 29, 2-((1R,3s,5S,6r)-3-(5,6-difluoro-1H-benzo[d]-imidazol-1-yl)bicyclo-[3.1.0]hexan-6-yl)-N-(5-methylpyridin-2-yl)-propanamide], the IC50 came to 0.0109 µM.

`CC(C(=O)NC1CC(F)(F)C1)[C@H]1[C@@H]2C[C@@H](n3cnc4cc(F)c(F)cc43)C[C@@H]21` (stereo partly drawn) [Example 30, 2-((1R,3s,5S,6r)-3-(5,6-difluoro-1H-benzo[d]-imidazol-1-yl)bicyclo-[3.1.0]hexan-6-yl)-N-(3,3-difluorocyclobutyl)-propanamide] registered a half-inhibitory concentration (IC50) of 1.64 µM.

In the case of `CC(C(=O)Nc1cnn(C)c1)[C@H]1[C@@H]2C[C@@H](n3cnc4cc(F)c(F)cc43)C[C@@H]21` (stereo partly drawn) [Example 31, 2-((1R,3s,5S,6r)-3-(5,6-difluoro-1H-benzo[d]-imidazol-1-yl)bicyclo-[3.1.0]hexan-6-yl)-N-(1-methyl-1H-pyrazol-4-yl)-propanamide], the 50% inhibitory concentration (IC50) was determined as 0.141 µM.

Consider `CC(C(=O)NC1CCC(F)(F)C1)[C@H]1[C@@H]2C[C@@H](n3cnc4cc(F)c(F)cc43)C[C@@H]21` (stereo partly drawn) [Example 32, 2-((1R,3s,5S,6r)-3-(5,6-difluoro-1H-benzo[d]-imidazol-1-yl)bicyclo-[3.1.0]hexan-6-yl)-N-(3,3-difluorocyclopentyl)-propanamide], for which it took 0.289 µM to reach half-maximal inhibition (IC50).

In turn, `CC(C(=O)Nc1ccn(C)n1)[C@H]1[C@@H]2C[C@@H](n3cnc4cc(F)c(F)cc43)C[C@@H]21` (stereo partly drawn) [Example 34, 2-((1R,3s,5S,6r)-3-(5,6-difluoro-1H-benzo[d]-imidazol-1-yl)bicyclo-[3.1.0]hexan-6-yl)-N-(1-methyl-1H-pyrazol-3-yl)-propanamide] registered a half-maximal inhibitory concentration (IC50) of 0.179 µM.

Compound `O=C(N[C@H](C1CC1)[C@H]1[C@@H]2C[C@@H](Oc3ccnc4ccc(F)cc34)C[C@@H]21)c1ccc(Cl)cc1` [Example 38, 4-chloro-N-((R)-cyclo-propyl((1R,3s,5S,6r)-3-((6-fluoroquinolin-4-yl)oxy)-bicyclo[3.1.0]hexan-6-yl)-methyl)benzamide] returned an IC50 of 0.00137 µM.

As to `CC(C(=O)NC12CC(c3ccc(F)cc3)(C1)C2)[C@H]1[C@@H]2C[C@@H](n3cnc4cc(F)c(F)cc43)C[C@@H]21` (stereo partly drawn) [Example 39, 2-((1R,3s,5S,6r)-3-(5,6-difluoro-1H-benzo[d]-imidazol-1-yl)bicyclo-[3.1.0]hexan-6-yl)-N-(3-(4-fluorophenyl)bicyclo-[1.1.1]pentan-1-yl)-propanamide], the 50% inhibitory concentration (IC50) came out at 0.0129 µM.

For `CC(C(=O)NC1CCC(F)(F)CC1)[C@H]1[C@@H]2C[C@@H](n3cnc4cc(F)c(F)cc43)C[C@@H]21` (stereo partly drawn) [Example 43, 2-((1R,3s,5S,6r)-3-(5,6-difluoro-1H-benzo[d]-imidazol-1-yl)bicyclo-[3.1.0]hexan-6-yl)-N-(4,4-difluorocyclohexyl)-propanamide], the IC50 is 0.192 µM.

Regarding `CC(C(=O)NCC(F)(F)F)[C@H]1[C@@H]2C[C@@H](n3cnc4cc(F)c(F)cc43)C[C@@H]21` (stereo partly drawn) [Example 44, 2-((1R,3s,5S,6r)-3-(5,6-difluoro-1H-benzo[d]-imidazol-1-yl)bicyclo-[3.1.0]hexan-6-yl)-N-(2,2,2-trifluoroethyl)-propanamide], 6.76 µM corresponded to half-maximal inhibition (IC50).

As to `CC(C(=O)NCCC(F)(F)F)[C@H]1[C@@H]2C[C@@H](n3cnc4cc(F)c(F)cc43)C[C@@H]21` (stereo partly drawn) [Example 45, 2-((1R,3s,5S,6r)-3-(5,6-difluoro-1H-benzo[d]-imidazol-1-yl)bicyclo-[3.1.0]hexan-6-yl)-N-(3,3,3-bifluoropropyl)-propanamide], the IC50 was found to be 0.663 µM.

Take `Cc1nc(NC(=O)C(C)[C@H]2[C@@H]3C[C@@H](n4cnc5cc(F)c(F)cc54)C[C@@H]32)ccc1C#N` (stereo partly drawn) [Example 46, (R)-N-(5-cyano-6-methyl-pyridin-2-yl)-2-((1R,3s,5S,6r)-3-(5,6-difluoro-1H-benzo[d]-imidazol-1-yl)bicyclo-[3.1.0]hexan-6-yl)-propanamide]: half-maximal inhibition (IC50) was put at 0.0413 µM.

In the case of `CC(C(=O)Nc1cnn(C(F)F)c1)[C@H]1[C@@H]2C[C@@H](n3cnc4cc(F)c(F)cc43)C[C@@H]21` (stereo partly drawn) [Example 47, 2-((1R,3s,5S,6r)-3-(5,6-difluoro-1H-benzo[d]-imidazol-1-yl)bicyclo-[3.1.0]hexan-6-yl)-N-(1-(difluoromethyl)-1H-pyrazol-4-yl)propanamide], inhibition was half-maximal at 0.014 µM (IC50).

Turning to `CC(C(=O)Nc1cc(C2CC2)nn1C)[C@H]1[C@@H]2C[C@@H](n3cnc4cc(F)c(F)cc43)C[C@@H]21` (stereo partly drawn) [Example 48, N-(3-cyclopropyl-1-methyl-1H-pyrazol-5-yl)-2-((1R,3s,5S,6r)-3-(5,6-difluoro-1H-benzo[d]-imidazol-1-yl)bicyclo-[3.1.0]hexan-6-yl)-propanamide], it took 0.589 µM to reach half-maximal inhibition (IC50).

For the compound `CC(C(=O)Nc1cnc2ccccn12)[C@H]1[C@@H]2C[C@@H](n3cnc4cc(F)c(F)cc43)C[C@@H]21` (stereo partly drawn) [Example 50, 2-((1R,3s,5S,6r)-3-(5,6-difluoro-1H-benzo[d]-imidazol-1-yl)bicyclo-[3.1.0]hexan-6-yl)-N-(imidazo[1,2-a]pyridin-3-yl)propanamide], half-maximal inhibition (IC50) was put at 0.495 µM.

`Cc1cc2ccc(NC(=O)C(C)[C@H]3[C@@H]4C[C@@H](n5cnc6cc(F)c(F)cc65)C[C@@H]43)cc2[nH]1` (stereo partly drawn) [Example 52, 2-((1R,3s,5S,6r)-3-(5,6-difluoro-1H-benzo[d]-imidazol-1-yl)bicyclo-[3.1.0]hexan-6-yl)-N-(2-methyl-1H-indol-6-yl)-propanamide] displayed a half-maximal inhibitory concentration (IC50) of 0.0239 µM.

The compound `Cc1cnc(NC(=O)C(C)[C@H]2[C@@H]3C[C@@H](n4cnc5cc(F)c(F)cc54)C[C@@H]32)cn1` (stereo partly drawn) [Example 53, 2-((1R,3s,5S,6r)-3-(5,6-difluoro-1H-benzo[d]-imidazol-1-yl)bicyclo-[3.1.0]hexan-6-yl)-N-(5-methylpyrazin-2-yl)-propanamide] gave a half-maximal inhibitory concentration (IC50) of 0.0105 µM.

Compound `CC(C(=O)Nc1cc(C(F)(F)F)nn1C)[C@H]1[C@@H]2C[C@@H](n3cnc4cc(F)c(F)cc43)C[C@@H]21` (stereo partly drawn) [Example 55, 2-((1R,3s,5S,6r)-3-(5,6-difluoro-1H-benzo[d]-imidazol-1-yl)bicyclo-[3.1.0]hexan-6-yl)-N-(1-methyl-3-(trifluoromethyl)-1H-pyrazol-5-yl)-propanamide] displayed an IC50 of 0.275 µM.

Turning to `CC(C(=O)Nc1ccc(C2CC2)nc1)[C@H]1[C@@H]2C[C@@H](n3cnc4cc(F)c(F)cc43)C[C@@H]21` (stereo partly drawn) [Example 56, N-(6-cyclopropylpyridin-3-yl)-2-((1R,3s,5S,6r)-3-(5,6-difluoro-1H-benzo[d]-imidazol-1-yl)bicyclo-[3.1.0]hexan-6-yl)-propanamide], the IC50 is 0.0057 µM.

The compound `CC(C(=O)Nc1cnc(Br)cn1)[C@H]1[C@@H]2C[C@@H](n3cnc4cc(F)c(F)cc43)C[C@@H]21` (stereo partly drawn) [Example 57, N-(5-bromopyrazin-2-yl)-2-((1R,3s,5S,6r)-3-(5,6-difluoro-1H-benzo[d]-imidazol-1-yl)bicyclo-[3.1.0]hexan-6-yl)-propanamide] registered a half-inhibitory concentration (IC50) of 0.0024 µM.

In turn, `CC(C(=O)Nc1ccc(C(F)(F)F)cn1)[C@H]1[C@@H]2C[C@@H](Oc3ccnc4ccc(F)cc34)C[C@@H]21` (stereo partly drawn) [Example 59, 2-((1R,3s,5S,6r)-3-((6-fluoroquinolin-4-yl)oxy)-bicyclo[3.1.0]hexan-6-yl)-N-(5-(trifluoromethyl)-pyridin-2-yl)propanamide] showed an IC50 of 0.0037 µM.

For the compound `CC(C(=O)Nc1ccc(C(F)(F)F)nc1)[C@H]1[C@@H]2C[C@@H](Oc3ccnc4ccc(F)cc34)C[C@@H]21` (stereo partly drawn) [Example 60], half-maximal inhibition (IC50) required 0.0047 µM.
